Results on 2 molecules are retold here after patent publication US4596805A, “Substituted dioxopyridopyrimidines” (Ortho Pharmaceutical Corporation, priority 1984, dated 1986).

Assay [1] deals with spontaneously hypertensive rats. As to the kind of experiment: Spontaneously Hypertensive Rat Test (Test 3). In kind it is in vivo. Conditions: 100 mg/kg body weight, four male spontaneously hypertensive rats, indirect tail-cuff method. On the procedure:
Alternatively, one may evaluate the calcium antagonist activity of a test compound by measuring the displacement of nitrendipine to calcium channel antagonist receptors by the test compound according to the methods of Bolger, et al., Biochem. Biophys. Res. Comm., 104(4), 1604-1609 (1982) and Ehlert, et al., Life Sciences, 30, 2191-2202 (1982). In such a test, the amount of specifically-bound nitrendipine to rabbit heart is determined in the presence and absence of test compound. The percent nitrendipine displacement is directly related to the efficacy of the test compound as a calcium antagonist. This assay is described below as the "Nitrendipine Binding Assay". […] Circ. J., 270, 282 (1963). The general techniques for conducting such tests are disclosed in B. Vagnovsky "Automatic Blood-Pressure Measurements in Small Animals", American Laboratory, April, 1973, and "Techniques for the Measurement of Blood Pressure", Institute of Laboratory Animal Resouces NEWS, Vol. XIX (3), G 11-12, Spring, 1976. In this test a group of four male spontaneously hypertensive rats having systolic blood pressures greater than 150 mm Hg are used for each test compound. Systolic blood pressure is measured by the indirect method using a tail-cuff. The compounds are administered at a dose of 100 mg/kg body weight, and the average of the peak decrease in blood pressure is calculated for the four rats. Test results for exemplary compounds of Formula I are provided in Table I below, in which the Rabbit Potassium Depolarized Blood Vessel Test is called "Test 2", the Nitrendipine Binding Assay is called "Test 1" and the Spontaneously Hypertensive Rat test is called "Test 3".

The target in assay [2] is calcium channel antagonist receptors (rabbit heart) (Oryctolagus cuniculus, UniProt P15381). As to the kind of experiment: Nitrendipine Binding Assay (Test 1). Also on record: species or system rabbit (female New Zealand white). As to conditions: 3H-nitrendipine (0.05-0.50 nM), rabbit heart membrane, 90 min at 4° C., pH 7.4; read-out: Test 1 (IC50): concentration required to achieve 50% displacement of specifically-bound nitrendipine.
calcium channel antagonist receptors (rabbit heart), sequence (P15381 whole entry, other chains not shown): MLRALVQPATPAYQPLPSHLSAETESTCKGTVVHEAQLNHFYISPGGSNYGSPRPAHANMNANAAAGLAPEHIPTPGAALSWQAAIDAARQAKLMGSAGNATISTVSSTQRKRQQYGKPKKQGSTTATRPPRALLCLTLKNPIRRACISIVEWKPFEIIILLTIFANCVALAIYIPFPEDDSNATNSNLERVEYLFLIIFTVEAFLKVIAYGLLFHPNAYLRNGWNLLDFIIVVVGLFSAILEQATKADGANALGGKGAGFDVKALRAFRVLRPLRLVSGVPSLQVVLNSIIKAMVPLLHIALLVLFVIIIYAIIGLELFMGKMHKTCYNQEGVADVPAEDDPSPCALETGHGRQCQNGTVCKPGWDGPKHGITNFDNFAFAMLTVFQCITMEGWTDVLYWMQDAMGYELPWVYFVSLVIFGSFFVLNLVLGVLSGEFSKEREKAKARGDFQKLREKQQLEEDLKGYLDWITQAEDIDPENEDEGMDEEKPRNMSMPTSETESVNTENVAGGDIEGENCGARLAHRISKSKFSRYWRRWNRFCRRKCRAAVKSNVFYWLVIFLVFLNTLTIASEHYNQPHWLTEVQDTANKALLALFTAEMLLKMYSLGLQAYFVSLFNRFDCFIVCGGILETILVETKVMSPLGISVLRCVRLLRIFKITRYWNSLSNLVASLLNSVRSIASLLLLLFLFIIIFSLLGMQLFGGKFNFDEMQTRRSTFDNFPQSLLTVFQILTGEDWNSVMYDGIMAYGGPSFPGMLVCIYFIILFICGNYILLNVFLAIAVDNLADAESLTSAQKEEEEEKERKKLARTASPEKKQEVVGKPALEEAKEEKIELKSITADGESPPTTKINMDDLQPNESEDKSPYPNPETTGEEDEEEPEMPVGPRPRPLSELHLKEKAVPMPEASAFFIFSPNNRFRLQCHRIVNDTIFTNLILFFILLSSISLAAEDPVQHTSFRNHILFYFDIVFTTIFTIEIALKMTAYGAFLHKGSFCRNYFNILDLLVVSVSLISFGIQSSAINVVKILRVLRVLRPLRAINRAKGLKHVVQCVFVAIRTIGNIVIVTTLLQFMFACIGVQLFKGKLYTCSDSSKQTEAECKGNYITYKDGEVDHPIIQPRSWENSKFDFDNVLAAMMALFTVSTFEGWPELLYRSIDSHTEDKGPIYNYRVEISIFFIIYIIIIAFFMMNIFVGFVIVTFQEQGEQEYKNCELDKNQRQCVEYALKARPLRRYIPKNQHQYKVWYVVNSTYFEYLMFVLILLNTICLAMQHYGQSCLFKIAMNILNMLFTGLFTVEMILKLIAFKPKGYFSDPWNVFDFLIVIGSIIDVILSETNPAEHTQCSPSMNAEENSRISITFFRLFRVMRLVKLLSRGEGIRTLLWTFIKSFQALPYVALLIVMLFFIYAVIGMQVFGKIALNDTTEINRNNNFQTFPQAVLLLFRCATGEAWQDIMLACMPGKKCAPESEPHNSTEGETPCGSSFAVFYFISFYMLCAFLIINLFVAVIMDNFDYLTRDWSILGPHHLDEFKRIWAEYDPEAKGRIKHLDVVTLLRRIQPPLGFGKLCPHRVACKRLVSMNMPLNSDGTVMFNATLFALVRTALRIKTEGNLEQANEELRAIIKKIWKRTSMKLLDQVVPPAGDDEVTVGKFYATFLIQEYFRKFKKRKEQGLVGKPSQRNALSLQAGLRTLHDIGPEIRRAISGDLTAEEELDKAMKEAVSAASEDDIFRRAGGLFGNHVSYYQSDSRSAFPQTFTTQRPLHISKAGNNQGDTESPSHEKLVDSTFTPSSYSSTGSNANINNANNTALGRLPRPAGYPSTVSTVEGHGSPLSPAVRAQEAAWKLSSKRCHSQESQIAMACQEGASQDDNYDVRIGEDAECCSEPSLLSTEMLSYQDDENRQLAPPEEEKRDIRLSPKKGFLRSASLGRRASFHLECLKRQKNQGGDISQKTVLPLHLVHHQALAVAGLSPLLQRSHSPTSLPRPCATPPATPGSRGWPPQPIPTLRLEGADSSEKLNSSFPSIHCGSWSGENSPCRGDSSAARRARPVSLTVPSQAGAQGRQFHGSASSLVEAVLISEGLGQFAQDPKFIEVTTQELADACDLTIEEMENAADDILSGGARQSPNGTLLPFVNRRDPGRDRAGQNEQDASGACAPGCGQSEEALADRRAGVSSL
calcium channel antagonist receptors (rabbit heart), sequence (P13806 27-960 partner limits assumed, other chains not shown): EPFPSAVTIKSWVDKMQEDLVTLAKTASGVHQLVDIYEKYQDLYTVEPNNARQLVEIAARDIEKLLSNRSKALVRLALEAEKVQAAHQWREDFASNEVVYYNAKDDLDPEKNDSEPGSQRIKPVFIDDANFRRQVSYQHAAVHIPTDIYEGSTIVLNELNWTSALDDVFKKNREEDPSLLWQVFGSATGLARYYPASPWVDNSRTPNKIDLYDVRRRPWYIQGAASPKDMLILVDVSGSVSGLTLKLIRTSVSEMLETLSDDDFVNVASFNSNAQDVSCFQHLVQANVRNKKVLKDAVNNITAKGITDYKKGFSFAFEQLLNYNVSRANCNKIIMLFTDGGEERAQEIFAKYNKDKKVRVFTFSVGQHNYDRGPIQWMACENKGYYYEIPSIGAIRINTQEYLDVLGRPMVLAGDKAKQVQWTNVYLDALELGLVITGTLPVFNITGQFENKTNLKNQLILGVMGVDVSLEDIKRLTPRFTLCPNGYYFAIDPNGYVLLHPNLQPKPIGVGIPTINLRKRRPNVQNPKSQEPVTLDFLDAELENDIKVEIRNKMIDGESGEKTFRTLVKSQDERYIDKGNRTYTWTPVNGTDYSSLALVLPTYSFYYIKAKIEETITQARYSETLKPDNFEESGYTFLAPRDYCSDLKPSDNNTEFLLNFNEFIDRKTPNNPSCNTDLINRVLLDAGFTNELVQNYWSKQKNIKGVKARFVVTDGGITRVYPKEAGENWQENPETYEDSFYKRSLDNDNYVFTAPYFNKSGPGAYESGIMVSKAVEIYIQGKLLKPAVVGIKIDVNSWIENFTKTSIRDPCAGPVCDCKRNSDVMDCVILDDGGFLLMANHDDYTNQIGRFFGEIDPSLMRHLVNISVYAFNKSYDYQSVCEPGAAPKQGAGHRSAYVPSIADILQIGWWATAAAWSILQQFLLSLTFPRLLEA
calcium channel antagonist receptors (rabbit heart), sequence (P13806 961-1106 partner limits assumed, other chains not shown): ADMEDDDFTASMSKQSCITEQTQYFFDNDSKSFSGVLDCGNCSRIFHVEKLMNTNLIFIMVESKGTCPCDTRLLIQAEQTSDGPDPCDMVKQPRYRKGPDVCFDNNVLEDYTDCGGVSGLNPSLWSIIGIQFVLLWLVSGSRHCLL

Assay [3] has as its system vascular smooth muscle tissue from the rabbit aorta. The assay is described as follows: Rabbit Potassium Depolarized Blood Vessel Test (Test 2). In kind it is cell-based. Conditions: Oryctolagus cuniculus, 10 min; test compound 10^-6 M, 10 minute exposure, 30 mM potassium chloride, rabbit aorta strips, 37° C.; read-out: Test 2 (% Inhibition) of potassium-induced contraction. An excerpt:
This tissue can be made to contract when exposed to a depolarizing solution containing an elevated potassium ion concentration and normal amounts of calcium ions. A test compound added to the solution produces a dose-dependent relaxation of the contracted rabbit aortic tissue which gives an indication of calcium antagonist activity of the test compound. This test is described below as the "Rabbit Potassium Depolarized Blood Vessel Test".
In the Rabbit Potassium Depolarized Blood Vessel Test, rabbits are killed by cervical dislocation, and the thoracic aorta is removed. Helical strips, approximately 30-40 mm in length, are cut from the aorta and are suspended in tissue baths of oxygenated Krebs bicarbonate buffer at 37° C. under a resting tension of 4 g. After an equilibration period of approximately 1-2 hours, the strips are challenged with a 30 mM potassium chloride solution and the peak contraction is measured. Following measurement of the peak contraction, the strips are washed and re-equilibrated for an hour in oxygenated Krebs bicarbonate buffer. After the re-equilibration of the aorta strips, the test compound was added to the bath at a concentration of 10-^6 M and the strips were allowed to stand for 10 minutes. After the 10 minute exposure to the test compound, the tissue strips were rechallenged with 30 mM potassium chloride solution and the maximum contraction was measured. The specificity of any inhibition of contraction is determined by addition of 10 mM phenylephrine.
The percent inhibition of contraction is calculated from the formula: […]
where CT is the peak contraction in the presence of the test compound and Cc is the peak contraction without test compound.
Test results for exemplary compounds of Formula I are provided in Table I below, in which the Rabbit Potassium Depolarized Blood Vessel Test is called "Test 2", the Nitrendipine Binding Assay is called "Test 1" and the Spontaneously Hypertensive Rat test is called "Test 3".

In the case of `CC1=C(C(=O)OCCN(C)Cc2ccccc2)C(c2ccccc2)c2c(n(C)c(=O)n(C)c2=O)N1` (stereo not drawn) [XI], the “Test 3 (mmHg, 100 mpk): average of the peak decrease in systolic blood pressure” value in assay [1] is on record as -28 mmHg. In assay [2], the IC50 was 1.3 µM. For the same molecule, the inhibition at 1 µM in assay [3] stood at 12%.
As to `CC1=C(C(=O)OCCN(C)Cc2ccccc2)C(C2CCCCC2)c2c(n(C)c(=O)n(C)c2=O)N1` (stereo not drawn) [XVII], the “Test 3 (mmHg, 100 mpk): average of the peak decrease in systolic blood pressure” value in assay [1] is -30 mmHg. In assay [2], the IC50 stood at 2 µM. For the same molecule, the inhibition at 1 µM in assay [3] was determined as 18%.

For orientation: inhibition means the change of the read-out against control, counted positive when it falls.
